Literature values, collected in publication PMC4274137 (HIV/AIDS (Auckland, N.Z.), 2014).
Read-outs that look alike come from different tables or passages of the source.

Tests used:
HIV patients [1] = tested on: HIV patients
HIV patients [2] = details: DAD study
HIV patients [3] = tested on: HIV patients; remark: listed apart in the source
HIV patients [4] = details: HIV patients in France
HIV patients [5] = details: Danish study
[6] = HIV dyslipidemia, ezetimibe monotherapy or combined with statin

**Q.** What does the source list for O=C1[C@H](CC[C@H](O)c2ccc(F)cc2)[C@@H](c2ccc(O)cc2)N1c1ccc(F)cc1 [Ezetimibe]?
**A.** lipid-lowering efficacy (HIV dyslipidemia; [6]): effective; safety (HIV patients [1]; [6]): safe

**Q.** With CC(C)OC(=O)C(C)(C)Oc1ccc(C(=O)c2ccc(Cl)cc2)cc1 [Fenofibrate] as the molecule, how does the “efficacy in mixed dyslipidemia and hypertriglyceridemia” value (HIV dyslipidemia; people with HIV infection) read?
**A.** Its value is “useful”.

**Q.** And the safety (HIV patients [1]; people with HIV infection)?
**A.** The safety was “generally safe”.

**Q.** With O=C(O)c1cccnc1 [Niacin] as the molecule, how does the “efficacy in improving lipid profile” value (HIV dyslipidemia; HIV patients, two studies) read?
**A.** Its value is “effective”.

**Q.** And the safety (HIV patients [1]; HIV patients, two studies)?
**A.** The safety was “safe”.

**Q.** With Nc1nc(NC2CC2)c2ncn([C@H]3C=C[C@@H](CO)C3)c2n1 [abacavir] as the molecule, how does the “risk of myocardial infarction” value (HIV patients [2]) read?
**A.** Its value is “associated with independent risk of myocardial infarction”.

**Q.** With O=C1Nc2ccc(Cl)cc2[C@@](C#CC2CC2)(C(F)(F)F)O1 [efavirenz] as the molecule, how does the “total cholesterol and triglycerides” value (HIV patients [3]; HIV patients on NNRTIs) read?
**A.** Its value is “associated with increase in total cholesterol and triglycerides”.

**Q.** Which results are given for Cc1cn([C@H]2C=C[C@@H](CO)O2)c(=O)[nH]c1=O [stavudine]?
**A.** association of treatment with NAFLD (Asian patients with HIV): not with HIV-related factors; risk factor for hypothyroidism (HIV patients [4]): risk factors

**Q.** With C[C@H](Cn1cnc2c(N)ncnc21)OCP(=O)(O)O [tenofovir] as the molecule, how does the “estimated glomerular filtration rate (eGFR)” value (HIV patients [5]) read?
**A.** Its value is “reduced estimated glomerular filtration rate”.

**Q.** What about the “high triglycerides and lipoatrophy (NRTI effect)” value (HIV patients [3]; compared with other NRTIs) of the same molecule?
**A.** The value was “this effect is less seen”.

**Q.** For Nc1ccn([C@H]2CC[C@@H](CO)O2)c(=O)n1 [zalcitabine], which “association of treatment with NAFLD” value (Asian patients with HIV) is on record?
**A.** Its value is “not with HIV-related factors”.
